What was measured:
[1] = Stability of the phosphonates and their esters during storage, by NMR; type: physicochemical; settings: trisodium salts
Description: Stability of the purified phosphonates and their esterified precursor was analyzed by NMR after storage under the inert (pure argon) or ambient (air) atmosphere and in water solutions. ^1H, ^13C and ^31P NMR spectra were recorded at 400, 100.6, and 161.9 MHz, respectively with a Bruker Avance 400 spectrometer. Chemical shifts were calculated using D2O or CDCl3 as reference standards for trisodium salts and triesters, respectively. The spectra of the phosphonates and their esters before and after storage are shown in Supplementary Figures 1, 2 correspondingly.

[2] = biological target: T1, OGDH (Rattus norvegicus, UniProt Q5XI78); assay: OGDH reaction (OG saturation) catalyzed by the enzyme preparation from rat heart; type: biochemical; parameters: the tissue fractions with the complexes enriched to a degree allowing for a robust detection of the enzymatic activities, have been used; from tissue; host or cells: rat heart
T1 sequence (Q5XI78 41-1023): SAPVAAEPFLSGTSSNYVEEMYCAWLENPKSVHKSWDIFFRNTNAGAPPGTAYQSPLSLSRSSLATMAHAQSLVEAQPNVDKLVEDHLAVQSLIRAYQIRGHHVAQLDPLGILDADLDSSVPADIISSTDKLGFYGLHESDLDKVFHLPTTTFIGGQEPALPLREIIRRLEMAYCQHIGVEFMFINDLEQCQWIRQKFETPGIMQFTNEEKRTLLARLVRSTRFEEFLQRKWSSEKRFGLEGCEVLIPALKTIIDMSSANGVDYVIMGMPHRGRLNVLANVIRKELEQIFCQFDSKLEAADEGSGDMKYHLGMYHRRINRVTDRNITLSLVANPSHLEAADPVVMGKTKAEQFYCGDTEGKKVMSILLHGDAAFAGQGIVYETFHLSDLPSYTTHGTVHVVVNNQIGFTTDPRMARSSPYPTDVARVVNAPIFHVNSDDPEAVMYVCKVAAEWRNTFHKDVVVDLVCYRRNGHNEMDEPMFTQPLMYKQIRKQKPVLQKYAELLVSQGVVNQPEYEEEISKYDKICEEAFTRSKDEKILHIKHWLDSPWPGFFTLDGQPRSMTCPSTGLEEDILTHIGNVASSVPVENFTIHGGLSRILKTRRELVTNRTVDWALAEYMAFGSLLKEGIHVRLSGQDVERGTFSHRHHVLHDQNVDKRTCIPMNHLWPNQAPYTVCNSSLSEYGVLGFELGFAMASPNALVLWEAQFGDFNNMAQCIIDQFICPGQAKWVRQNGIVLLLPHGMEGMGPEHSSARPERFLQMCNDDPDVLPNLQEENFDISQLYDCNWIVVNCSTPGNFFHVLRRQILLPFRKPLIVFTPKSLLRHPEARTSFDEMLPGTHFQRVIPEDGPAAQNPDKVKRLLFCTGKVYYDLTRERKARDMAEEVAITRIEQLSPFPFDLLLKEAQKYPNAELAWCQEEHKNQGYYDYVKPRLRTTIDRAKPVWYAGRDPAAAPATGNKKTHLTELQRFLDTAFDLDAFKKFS
T1 sequence (Q01205 69-454 partner): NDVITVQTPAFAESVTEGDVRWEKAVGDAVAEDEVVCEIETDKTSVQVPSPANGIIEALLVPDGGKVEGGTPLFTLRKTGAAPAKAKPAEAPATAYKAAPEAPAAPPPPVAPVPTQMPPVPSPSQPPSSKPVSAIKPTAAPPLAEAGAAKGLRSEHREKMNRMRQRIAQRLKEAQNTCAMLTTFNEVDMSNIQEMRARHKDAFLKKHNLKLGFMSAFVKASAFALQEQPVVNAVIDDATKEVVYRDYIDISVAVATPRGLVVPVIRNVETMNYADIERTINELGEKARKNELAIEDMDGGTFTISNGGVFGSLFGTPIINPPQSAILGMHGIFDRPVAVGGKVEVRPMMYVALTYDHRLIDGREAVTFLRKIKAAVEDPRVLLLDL
T1 sequence (Q6P6R2 36-509 partner): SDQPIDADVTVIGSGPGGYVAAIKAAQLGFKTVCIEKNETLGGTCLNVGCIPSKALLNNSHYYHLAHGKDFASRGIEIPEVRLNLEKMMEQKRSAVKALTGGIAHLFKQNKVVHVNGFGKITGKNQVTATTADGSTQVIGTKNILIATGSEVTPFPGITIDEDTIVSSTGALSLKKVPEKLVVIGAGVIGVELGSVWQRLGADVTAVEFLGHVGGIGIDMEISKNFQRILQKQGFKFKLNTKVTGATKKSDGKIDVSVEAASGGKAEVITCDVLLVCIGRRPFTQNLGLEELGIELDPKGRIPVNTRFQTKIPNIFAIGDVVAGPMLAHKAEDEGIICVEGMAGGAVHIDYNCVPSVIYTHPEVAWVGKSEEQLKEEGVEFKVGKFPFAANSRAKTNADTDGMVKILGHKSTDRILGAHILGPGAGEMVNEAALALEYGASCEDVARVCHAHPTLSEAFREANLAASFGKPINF
Description: (§1) Reactions were started by addition of the enzyme preparations to the assay media. The amount of enzyme preparations (0.074 mg protein for the preparation from liver and 0.023 mg protein for the preparation from heart) were chosen to induce the lowest reliably measured reaction rate (ΔA340 = 0.001/min) at 0.01 mM OA without the phosphonates.
(§2) Reaction rates were calculated from linear parts of the product accumulation curves (up to 10 min, dependent on the reaction rate), excluding the initial region, where mixing the reagents and solubilization of the preparation affected the optical density.
(§3) The former equation describes one type of the active sites. […] The assumption was based on the presence of the two enzymes, OGDH and OADH, in the employed preparations.
(§4) The Km and Amax values obtained in independent experiments using the non-linear and linear regression analyses of the experimental data, were averaged and presented as Mean ± Standard Error of Mean.
(§5) The values of Ki were determined as the ratio of the corresponding Intercepts to the Slopes. In the two-site model, the Ki(1) and Ki(2) were calculated separately from the linear approximations of Km,1eff/Amax,1eff vs. [I] and Km,2eff/Amax,2eff vs. [I] dependences, respectively. […] The Ki values obtained from the non-linear and linear regression analyses of the experimental data were averaged and presented as Mean ± Standard Error of Mean.

[3] = biological target: T1, OGDH; assay: OGDH reaction (OG saturation) catalyzed by the enzyme preparation from rat liver; type: biochemical; parameters: the tissue fractions with the complexes enriched to a degree allowing for a robust detection of the enzymatic activities, have been used; from tissue
Description: as §1, §2, §3, §4, §5

[4] = OGDH reaction, heart, Eadie-Hofstee, read-out: Ki, EH
[5] = OGDH reaction, heart, Lineweaver-Burk, read-out: Ki, LB
[6] = OGDH reaction, heart, Michaelis-Menten approximation, read-out: Ki, MM
[7] = OGDH reaction, heart, average of MM, LB, EH, read-out: Ki, Average
[8] = [I] 10 µM, OGDH reaction, heart
[9] = [I] 50 µM, OGDH reaction, heart
[10] = [I] 200 µM, OGDH reaction, heart
[11] = Eadie-Hofstee, read-out: Ki, EH
[12] = Lineweaver-Burk, read-out: Ki, LB
[13] = Michaelis-Menten approximation, read-out: Ki, MM
[14] = average of MM, LB, EH, read-out: Ki, Average
[15] = [I] 1000 µM, OGDH reaction, heart

| Structure (SMILES) | stability upon the shelf storage [1] | Ki [2, 4] [µM] | Ki [2, 5] [µM] | Ki [2, 6] [µM] | Ki [2, 7] [µM] | Amax ([2]; [I] 2 µM, OGDH reaction, heart) | Amax [2, 8] | Amax [2, 9] | Amax [2, 10] | Ki [3, 11] [µM] | Ki [3, 12] [µM] | Ki [3, 13] [µM] | Amax ([3]; [I] 2 µM) | Amax ([3]; [I] 10 µM) | Amax ([3]; [I] 50 µM) | Amax ([3]; [I] 200 µM) | Ki [3, 14] [µM] | Amax [2, 15] | Amax ([3]; [I] 1000 µM) | further results |
| --- | --- | --- | --- | --- | --- | --- | --- | --- | --- | --- | --- | --- | --- | --- | --- | --- | --- | --- | --- | --- |
| O=C(O)CCCC(=O)P(=O)(O)O [GP, glutaryl phosphonate] | high stability | 49 ± 8 | 12 ± 1 | 39 ± 2 | 33 ± 11 | 0.67 ± 0.02 µmol/min per mg of protein | 0.76 ± 0.02 µmol/min per mg of protein | 0.79 ± 0.03 µmol/min per mg of protein | 0.86 ± 0.05 µmol/min per mg of protein | 6.2 ± 0.1 | 5.6 ± 0.1 | 7.3 ± 0.4 | 0.045 ± 0.001 µmol/min per mg of protein | 0.045 ± 0.001 µmol/min per mg of protein | 0.044 ± 0.001 µmol/min per mg of protein | 0.066 ± 0.011 µmol/min per mg of protein | 6.3 ± 0.5 |  |  |  |
| O=C(O)CCCCC(=O)P(=O)(O)O [AP, adipoyl phosphonate] | high stability | 1760 ± 77 | 2140 ± 517 | 2490 ± 341 | 2130 ± 211 | 0.72 ± 0.01 µmol/min per mg of protein | 0.62 ± 0.01 µmol/min per mg of protein | 0.67 ± 0.01 µmol/min per mg of protein | 0.70 ± 0.02 µmol/min per mg of protein | 326 ± 19 | 361 ± 36 | 405 ± 11 | 0.042 ± 0.001 µmol/min per mg of protein | 0.042 ± 0.001 µmol/min per mg of protein | 0.042 ± 0.001 µmol/min per mg of protein | 0.045 ± 0.001 µmol/min per mg of protein | 364 ± 23 | 0.63 ± 0.03 µmol/min per mg of protein | 0.049 ± 0.001 µmol/min per mg of protein | Amax ([2]; [I] 0.5 µM, OGDH reaction, heart): 0.70 ± 0.02 µmol/min per mg of protein; Amax ([2]; [I] 5000 µM, OGDH reaction, heart): 0.61 ± 0.04 µmol/min per mg of protein; Amax ([3]; [I] 0.5 µM): 0.040 ± 0.001 µmol/min per mg of protein; Amax ([3]; [I] 5000 µM): 0.039 ± 0.004 µmol/min per mg of protein |
| O=C(O)CCC(=O)P(=O)(O)O [SP, succinyl phosphonate] | high stability | 15 ± 1 |  |  |  |  | 0.72 ± 0.01 µmol/min per mg of protein | 0.71 ± 0.02 µmol/min per mg of protein | 0.45 ± 0.11 µmol/min per mg of protein |  |  |  |  | 0.043 ± 0.001 µmol/min per mg of protein | 0.041 ± 0.001 µmol/min per mg of protein | 0.038 ± 0.002 µmol/min per mg of protein |  | 0.54 ± 0.07 µmol/min per mg of protein | 0.019 ± 0.002 µmol/min per mg of protein | Ki ([2]; Ki, Average, OGDH reaction, heart, average of MM, LB, EH): 16 ± 2 µM; Ki ([2]; Ki, LB, OGDH reaction, heart, Lineweaver-Burk): 13 ± 2 µM; Ki ([2]; Ki, MM, OGDH reaction, heart, Michaelis-Menten approximation): 20 ± 1 µM; Ki ([2]; rounded from Table 2 (heart and liver preparations), read-out: Ki as OGDH inhibitor (order of magnitude)): 10 µM; Ki ([3]; Ki, Average, average of MM, LB, EH): 7.4 ± 1.4 µM; Ki ([3]; Ki, EH, Eadie-Hofstee): 7.7 ± 0.1 µM; Ki ([3]; Ki, LB, Lineweaver-Burk): 4.9 ± 0.1 µM; Ki ([3]; Ki, MM, Michaelis-Menten approximation): 9.6 ± 0.2 µM |

Reference: PMC7835950 (Frontiers in Chemistry, 2021)
